Source: US7713994B2 (Wyeth LLC, priority 2005, dated 2010)
Where two headings read alike, the source gives them in different places.

Assays:
MCF-7 = experiment: Cytotoxicity assay (SRB), MCF-7; format: cell-based; settings: Homo sapiens, MCF7, 72 h, read-out: In Vitro Cellular Activity IC50 MCF-7
Procedure, shortened: (§1)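 Overnight-seeded monolayers (4000–12000 cells/well by line) receive compound in 5% FBS medium at 37 °C, 7% CO2. After 3 d, or 6 d for BT474, cellular protein is fixed with cold TCA, stained with SRB and read at 540 nm against untreated wells.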

BT474 = experiment: Cytotoxicity assay (SRB), BT474; format: cell-based; settings: Homo sapiens, BT-474, 144 h, read-out: In Vitro Cellular Activity IC50 BT474
Procedure, shortened: as §1

LoVo = experiment: Cytotoxicity assay (SRB), LoVo; format: cell-based; settings: Homo sapiens, LoVo, 72 h, read-out: In Vitro Cellular Activity IC50 LOVO
Procedure, shortened: as §1

cyclin D1/cdk 4 enzyme = target: T1, cyclin D1/cdk 4 enzyme (Homo sapiens, UniProt P11802); experiment: CDK4 ELISA kinase assay (phospho-Rb ser 795 detection); format: biochemical; settings: In Vitro Enzyme Assays, 200 μM ATP, read-out: CDK4 IC50
T1 construct: made in house; host or cells: Sf9 insect cells, recombinant baculovirus
Procedure, shortened: (§2)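 Inhibition was derived from A450 relative to control wells lacking compound, following an anti-phospho-Rb Ser795 sandwich of HRP detection. The reactions combined coated GST-Rb fragment, 200 μM ATP and baculovirus-expressed cyclin/CDK enzymes, incubated for 1 h at 30° C.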

cyclin E/CDK2 enzyme = target: T2, cyclin E/CDK2 enzyme (Homo sapiens, UniProt P24941); experiment: CDK2 ELISA kinase assay (phospho-Rb ser 795 detection); format: biochemical; settings: In Vitro Enzyme Assays, read-out: CDK2 IC50
T2 construct: made in house; host or cells: Sf9 insect cells, recombinant baculovirus
Procedure, shortened: as §2

HCT-116 = experiment: Cytotoxicity assay (SRB), HCT-116; format: cell-based; settings: Homo sapiens, HCT-116, 72 h, read-out: In Vitro Cellular Activity IC50 HCT116
Procedure, shortened: as §1

cyclin B/CDK1 enzyme = target: T3, cyclin B/CDK1 enzyme (Homo sapiens, UniProt P06493); experiment: CDK1 ELISA kinase assay (phospho-Rb ser 795 detection); format: biochemical; settings: In Vitro Enzyme Assays, read-out: CDK1 IC50
T3 construct: purchased New England BioLabs; host or cells: Sf9 insect cells, recombinant baculovirus
Procedure, shortened: as §2

T1 sequence (P11802 whole entry, species assumed): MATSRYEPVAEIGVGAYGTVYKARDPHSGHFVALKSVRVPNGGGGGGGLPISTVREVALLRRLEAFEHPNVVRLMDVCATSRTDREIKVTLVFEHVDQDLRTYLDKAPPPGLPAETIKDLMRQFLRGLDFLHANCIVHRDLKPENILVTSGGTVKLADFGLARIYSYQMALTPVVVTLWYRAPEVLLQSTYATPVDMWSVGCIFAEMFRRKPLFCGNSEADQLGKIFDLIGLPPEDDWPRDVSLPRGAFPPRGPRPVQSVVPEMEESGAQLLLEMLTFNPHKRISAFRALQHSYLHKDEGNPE
T1 sequence (P24385 whole entry partner, species assumed): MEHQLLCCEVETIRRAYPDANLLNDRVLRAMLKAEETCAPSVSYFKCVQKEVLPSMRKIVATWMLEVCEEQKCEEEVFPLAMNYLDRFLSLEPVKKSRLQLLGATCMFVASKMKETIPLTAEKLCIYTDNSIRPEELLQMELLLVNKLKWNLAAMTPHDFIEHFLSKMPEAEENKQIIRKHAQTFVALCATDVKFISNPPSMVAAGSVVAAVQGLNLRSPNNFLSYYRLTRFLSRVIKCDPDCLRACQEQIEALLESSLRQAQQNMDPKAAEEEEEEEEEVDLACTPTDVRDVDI
T3 sequence (P06493 whole entry): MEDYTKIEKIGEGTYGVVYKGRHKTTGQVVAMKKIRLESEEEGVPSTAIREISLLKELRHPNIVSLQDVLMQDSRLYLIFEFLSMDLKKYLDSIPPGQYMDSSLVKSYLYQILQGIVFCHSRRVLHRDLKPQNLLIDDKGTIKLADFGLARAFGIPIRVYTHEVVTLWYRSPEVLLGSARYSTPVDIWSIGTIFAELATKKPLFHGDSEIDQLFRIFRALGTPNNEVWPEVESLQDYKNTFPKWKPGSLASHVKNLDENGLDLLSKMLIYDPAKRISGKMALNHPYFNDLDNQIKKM
T3 sequence (P14635 whole entry partner): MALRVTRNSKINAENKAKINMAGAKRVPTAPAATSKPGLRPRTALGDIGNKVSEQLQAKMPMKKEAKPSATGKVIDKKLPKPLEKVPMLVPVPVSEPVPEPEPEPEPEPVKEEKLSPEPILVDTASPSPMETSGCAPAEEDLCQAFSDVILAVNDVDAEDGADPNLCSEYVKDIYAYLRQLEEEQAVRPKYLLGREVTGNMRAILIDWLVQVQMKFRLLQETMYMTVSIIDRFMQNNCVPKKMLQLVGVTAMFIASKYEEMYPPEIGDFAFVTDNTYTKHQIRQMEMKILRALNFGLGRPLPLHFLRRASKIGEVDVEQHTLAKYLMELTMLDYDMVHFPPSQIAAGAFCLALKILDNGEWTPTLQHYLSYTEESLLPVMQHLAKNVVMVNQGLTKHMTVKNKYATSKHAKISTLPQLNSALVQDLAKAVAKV

| IC50 (cyclin D1/cdk 4 enzyme) [µM] | IC50 (cyclin E/CDK2 enzyme) [µM] | melting point [°C] | IC50 (cyclin B/CDK1 enzyme) [µM] | SMILES | IC50 (MCF-7; MCF-7 cells, SRB, three days) [µM] | IC50 (BT474; BT474 cells, SRB, 6 days) [µM] | IC50 (LoVo; LoVo cells, SRB, three days) [µM] | IC50 (HCT-116; HCT116 cells, SRB, three days) [µM] | IC50 (MCF-7; MCF-7 cells, 3 days, SRB) [µM] | IC50 (BT474; BT474 cells, 6 days, SRB) [µM] | IC50 (LoVo; LoVo cells, 3 days, SRB) [µM] | IC50 (HCT-116; HCT116 cells, 3 days, SRB) [µM] | IC50 (MCF-7) [µM] | IC50 (BT474) [µM] | IC50 (LoVo) [µM] | IC50 (HCT-116) [µM] |
| --- | --- | --- | --- | --- | --- | --- | --- | --- | --- | --- | --- | --- | --- | --- | --- | --- |
| 0.01 | > 50 | 191 to 192 | > 50 | C[C@@H]1CN(c2ccc(N/C=C3\C(=O)NC(=O)c4ccc(-c5ccoc5)cc43)cc2)C[C@H](C)N1C(=O)CN(C)C [Example 373, (4Z)-4-[({4-[(3R,5S)-4-(N,N-Dimethylglycyl)-3,5-dimethylpiperazin-1-yl]phenyl}amino)methylene]-6-(3-furyl)isoquinoline-1,3(2H,4H)-dione] | 2.1 | 3.5 | 1.9 | 0.75 | – | – | – | – | – | – | – | – |
| 0.1 | > 50 | 198 to 199 | 42.5 | C[C@@H]1CN(c2ccc(N/C=C3\C(=O)NC(=O)c4ccc(-c5ccsc5)cc43)cc2)C[C@H](C)N1C(=O)CN(C)C [Example 380, (4Z)-4-[({4-[(3R,5S)-4-(N,N-Dimethylglycyl)-3,5-dimethylpiperazin-1-yl]phenyl}amino)methylene]-6-thien-3-ylisoquinoline-1,3(2H,4H)-dione] | 3.4 | 9.1 | 8.2 | 0.5 | – | – | – | – | – | – | – | – |
| 13.2 | 3.1 | 187 to 188 | > 50 | C[C@@H]1CN(c2c(F)cc(N/C=C3\C(=O)NC(=O)c4ccc(Br)cc43)cc2F)C[C@H](C)N1 [Example 381, (4Z)-6-Bromo-4-[({4-[(3R,5S)-3,5-dimethylpiperazin-1-yl]-3,5-difluorophenyl}amino)-methylene]isoquinoline-1,3(2H,4H)-dione] | 4.3 | 3 | 3.4 | 2 | – | – | – | – | – | – | – | – |
| 0.29 | > 50 | 208 to 209 | > 50 | O=C1NC(=O)c2ccc(-c3ccsc3)cc2/C1=C/Nc1ccc(N2CCN3CCC[C@H]3C2)c(F)c1 [Example 382, (4Z)-4-[({3-Fluoro-4-[(8aS)-hexahydropyrrolo[1,2-a]pyrazin-2(1H)-yl]phenyl}amino)-methylene]-6-thien-3-ylisoquinoline-1,3(2H,4H)-dione] | 2.7 | 2.7 | 3.7 | 1.2 | – | – | – | – | – | – | – | – |
| 0.45 | 25.9 | 195 to 196 | 14.4 | C[C@@H]1CN(c2c(F)cc(N/C=C3\C(=O)NC(=O)c4ccc(-c5ccsc5)cc43)cc2F)C[C@H](C)N1 [Example 383, (4Z)-4-[({4-[(3R,5S)-3,5-Dimethylpiperazin-1-yl]-3,5-difluorophenyl}amino)methylene]-6-thien-3-ylisoquinoline-1,3(2H,4H)-dione] | 2.1 | 1.3 | 2.6 | 0.84 | – | – | – | – | – | – | – | – |
| 0.21 | > 50 | 199 to 200 | > 50 | COC1CCN(Cc2ccc(N/C=C3\C(=O)NC(=O)c4ccc(I)cc43)cc2)CC1 [Example 394, (4Z)-6-Iodo-4-[({4-[(4-methoxypiperidin-1-yl)methyl]phenyl}amino)methylene]isoquinoline-1,3(2H,4H)-dione] | – | – | – | – | 2.6 | 4.03 | 3.7 | 3.7 | – | – | – | – |
| 0.14 | > 50 | 188 to 189 | > 50 | COC1CCN(Cc2ccc(N/C=C3\C(=O)NC(=O)c4ccc(-c5ccc(F)cc5)cc43)cc2)CC1 [Example 395, (4Z)-6-(4-Fluorophenyl)-4-[({4-[(4-methoxypiperidin-1-yl)methyl]phenyl}amino)methylene]isoquinoline-1,3(2H,4H)-dione] | – | – | – | – | 1.4 | 1.49 | 2.8 | 2.3 | – | – | – | – |
| 1.8 | > 50 | 204 to 205 | > 50 | O=C1NC(=O)c2ccc(Br)cc2/C1=C/Nc1ccc(N2CCC(N3CCCC3)CC2)c(F)c1 [Example 405, (4Z)-6-Bromo-4-({[3-fluoro-4-(4-pyrrolidin-1-ylpiperidin-1-yl)phenyl]amino}-methylene)-isoquinoline-1,3(2H,4H)-dione] | – | – | – | – | 5.6 | 3.1 | 2 | 1.7 | – | – | – | – |
| 0.09 | 49.7 | 200 to 201 | 31.7 | O=C1NC(=O)c2ccc(-c3ccsc3)cc2/C1=C/Nc1ccc(N2CCC(N3CCCC3)CC2)c(F)c1 [Example 406, (4Z)-4-({[3-Fluoro-4-(4-pyrrolidin-1-ylpiperidin-1-yl)phenyl]amino}methylene)-6-thien-3-ylisoquinoline-1,3(2H,4H)-dione] | – | – | – | – | 3.4 | 3.9 | 2.7 | 2.6 | – | – | – | – |
| 1.6 | > 50 | 214 to 215 | > 50 | O=C1NC(=O)c2ccc(Br)cc2/C1=C/Nc1ccc(N2CCC(N3CCCC3)CC2)nc1 [Example 407, (4Z)-6-Bromo-4-({[6-(4-pyrrolidin-1-ylpiperidin-1-yl)pyridin-3-yl]amino}methylene)isoquinoline-1,3(2H,4H)-dione] | – | – | – | – | 9.7 | 10.2 | 8.5 | 3.8 | – | – | – | – |
| 0.29 | > 50 | 134 to 135 | > 50 | CN(C)C1CCN(Cc2ccc(N/C=C3\C(=O)NC(=O)c4ccc(I)cc43)cc2)C1 (centres unmarked) [Example 422, (4Z)-4-{[(4-{[3-(Dimethylamino)pyrrolidin-1-yl]methyl}phenyl)amino]methylene}-6-iodoisoquinoline-1,3(2H,4H)-dione] | – | – | – | – | 5.6 | 3.7 | 3.8 | 2 | – | – | – | – |
| 1.4 | > 50 | 130 to 131 | > 50 | CN(C)C[C@@H]1CCCN1Cc1ccc(N/C=C2\C(=O)NC(=O)c3ccc(I)cc32)cc1 [Example 423] | – | – | – | – | 4.3 | 5.4 | 4.5 | 3.8 | – | – | – | – |
| 0.36 | 37.1 | 139 to 140 | 44.4 | CN(C)CCCN1CCC(c2ccc(N/C=C3\C(=O)NC(=O)c4ccc(I)cc43)cc2)CC1 [Example 425, (4Z)-4-{[(4-{1-[3-(Dimethylamino)propyl]piperidin-4-yl}phenyl)amino]methylene}-6-iodoisoquinoline-1,3(2H,4H)-dione] | – | – | – | – | 2.6 | 1.5 | 1.2 | 0.6 | – | – | – | – |
| 0.86 | > 50 | 205 to 206 | > 50 | O=C1NC(=O)c2ccc(I)cc2/C1=C/Nc1ccc(CN2CCCCC2CO)cc1 (centres unmarked) [Example 439, (4Z)-4-{[(4-{[2-(Hydroxymethyl)piperidin-1-yl]methyl}phenyl)amino]methylene}-6-iodoisoquinoline-1,3(2H,4H)-dione] | – | – | – | – | 0.75 | 0.38 | 2.5 | 3.5 | – | – | – | – |
| 0.35 | 19.3 | 255 to 256 | 27.7 | O=C1NC(=O)c2ccc(I)cc2/C1=C/Nc1ccc(CN2CCC(O)CC2)cc1 [Example 440, (4Z)-4-[({4-[(4-Hydroxypiperidin-1-yl)methyl]phenyl}amino)methylene]-6-iodoisoquinoline-1,3(2H,4H)-dione] | – | – | – | – | 1.6 | 1.6 | 4 | 3.2 | – | – | – | – |

| SMILES | IC50 (cyclin D1/cdk 4 enzyme) [µM] | IC50 (cyclin E/CDK2 enzyme) [µM] | melting point [°C] | IC50 (cyclin B/CDK1 enzyme) [µM] | IC50 (MCF-7; MCF-7 cells, SRB, three days) [µM] | IC50 (BT474; BT474 cells, SRB, 6 days) [µM] | IC50 (LoVo; LoVo cells, SRB, three days) [µM] | IC50 (HCT-116; HCT116 cells, SRB, three days) [µM] | IC50 (MCF-7; MCF-7 cells, 3 days, SRB) [µM] | IC50 (BT474; BT474 cells, 6 days, SRB) [µM] | IC50 (LoVo; LoVo cells, 3 days, SRB) [µM] | IC50 (HCT-116; HCT116 cells, 3 days, SRB) [µM] | IC50 (MCF-7) [µM] | IC50 (BT474) [µM] | IC50 (LoVo) [µM] | IC50 (HCT-116) [µM] |
| --- | --- | --- | --- | --- | --- | --- | --- | --- | --- | --- | --- | --- | --- | --- | --- | --- |
| O=C1NC(=O)c2ccc(-c3ccsc3)cc2/C1=C/Nc1ccc(N2CCC(N3CCCC3)CC2)nc1 [Example 408] | 0.12 | > 50 | 203 to 204 | > 50 | – | – | – | – | – | – | – | – | 5.1 | 2.4 | 2.6 | 2.5 |
